# Experiments:
# hDES2 = test: Model of differentiation of normal human keratinocytes: gene expression (mRNA) of hDES2; assay type: cell-based; conditions: NHK, with respect to non-treated cells
# Excerpt: (§1) First, the effects of extracts according to the invention have first been studied from a model of differentiated normal human keratinocytes (NHK).
# (§2) The effect of the extracts of Moringa sp. on the gene expression of different proteins involved in the synthesis or the transport of the epidermal lipids, ABC G1 and hDES2, has been analyzed.
# (§3) The results are expressed in percentage of stimulation of the gene expression (mRNA) of different markers of the epidermal differentiation expressed by the NHKs (with respect to the non-treated cells). A significant positive effect is considered from 100% of stimulation.
# ABC G1 = test: Model of differentiation of normal human keratinocytes: gene expression (mRNA) of ABC G1; assay type: cell-based; conditions: NHK, with respect to non-treated cells
# Excerpt: as §1, §2, §3
# [1] = DPPH test (antioxidant activity); conditions: methanolic solution of DPPH at 0.06 mM, absorption at 517 nm
# Excerpt: The antioxidant activity of the seed extract of Moringa oleifera according to the present invention has been evaluated with the DPPH test. This test is based on the measure of the capacity for trapping antioxidants of the stable radical 2.2-diphenyl-1-picrylhydrazyl (DPPH). This stable radical, having absorption at 517 nm, is reduced to the corresponding hydrazine when it reacts with a hydrogen donor.
# The results obtained are expressed in IC50, corresponding to the concentration giving 50% reduction in absorbance of a methanolic solution of DPPH at 0.06 mM.
compound,measurement,setting,value
"CN(CCOc1ccc(CC2SC(=O)NC2=O)cc1)c1ccccn1 (centres unmarked) [Roziglitazone, roziglitazone]",percentage of stimulation of the gene expression (mRNA) of hDES2,hDES2; 10 μM,190%
same,percentage of stimulation of the gene expression (mRNA) of ABC G1,ABC G1; 10 μM,330%
"C=C1CC[C@H](O)C/C1=C/C=C1\CCC[C@]2(C)[C@@H]([C@H](C)CCCC(C)C)CC[C@@H]12 [Vit D3, vitamin D3]",percentage of stimulation of the gene expression (mRNA) of hDES2,hDES2; 5 μM,780%
same,percentage of stimulation of the gene expression (mRNA) of ABC G1,ABC G1; 5 μM,170%
Vitamin E,IC50 (concentration giving 50% reduction in absorbance of DPPH solution),[1],6 to 10 µg/mL

# From patent US20120128607A1, “EXTRACT OF WHOLE SEEDS OF MORNINGA SP, AND USE THEREOF IN COSMETIC AND/OR DERMATOLOGICAL COMPOSITIONS” (PIERRE FABRE DERMO-COSMETIQUE, priority 2009, published 2012)
